Among the data in PubChem BioAssay AID1259407 (Chemical Carcinogenesis Research Information System (CCRIS), 2018) are mutagenic call values, retold here.

Calls of active or inactive are those of the source. How the calls were made is not given here.

The test system of this data set is CCRIS mutagenicity, Ames/micronucleus/aberration tests. The data set can be described thus: CCRIS mutagenicity studies. As to conditions: Test System: AMES SALMONELLA TYPHIMURIUM

`COc1ccc(C(=O)c2ccccc2O)c(O)c1`: the mutagenic call is “inactive; negative” (Strain/Indicator: TA98, Metabolic Activation: HAMSTER, LIVER, S-9, AROCLOR 1254 (10%), Method: PREINCUBATION); “inactive; negative” (Strain/Indicator: TA98, Metabolic Activation: NONE, Method: PREINCUBATION); “inactive; negative” (Strain/Indicator: TA98, Metabolic Activation: RAT, LIVER, S-9, AROCLOR 1254 (10%), Method: PREINCUBATION); “inactive; negative” (Strain/Indicator: TA100, Metabolic Activation: HAMSTER, LIVER, S-9, AROCLOR 1254 (10%), Method: PREINCUBATION); “inactive; negative” (Strain/Indicator: TA100, Metabolic Activation: NONE, Method: PREINCUBATION); “inactive; negative” (Strain/Indicator: TA100, Metabolic Activation: RAT, LIVER, S-9, AROCLOR 1254 (10%), Method: PREINCUBATION). The mutagenic call is “inactive; negative” (Strain/Indicator: TA1535, Metabolic Activation: HAMSTER, LIVER, S-9, AROCLOR 1254 (10%), Method: PREINCUBATION); “inactive; negative” (Strain/Indicator: TA1535, Metabolic Activation: NONE, Method: PREINCUBATION); “inactive; negative” (Strain/Indicator: TA1535, Metabolic Activation: RAT, LIVER, S-9, AROCLOR 1254 (10%), Method: PREINCUBATION); “active; positive” (Strain/Indicator: TA1537, Metabolic Activation: HAMSTER, LIVER, S-9, AROCLOR 1254 (10%), Method: PREINCUBATION); “inactive; negative” (Strain/Indicator: TA1537, Metabolic Activation: NONE, Method: PREINCUBATION); “active; positive” (Strain/Indicator: TA1537, Metabolic Activation: RAT, LIVER, S-9, AROCLOR 1254 (10%), Method: PREINCUBATION).
Turning to `CCOP(=O)(OCC)O/C(=C\Cl)c1ccc(Cl)cc1Cl`, the mutagenic call was “inactive; negative” (Strain/Indicator: TA98, Metabolic Activation: NONE, Method: STANDARD PLATE); “inactive; negative” (Strain/Indicator: TA98, Metabolic Activation: RAT, LIVER, S-9, AROCLOR 1254, Method: STANDARD PLATE); “inactive; negative” (Strain/Indicator: TA100, Metabolic Activation: RAT, LIVER, S-9, AROCLOR 1254, Method: STANDARD PLATE); “inactive; negative” (Strain/Indicator: TA100, Metabolic Activation: S-9 MIX, Method: STANDARD PLATE); “inactive; negative” (Strain/Indicator: TA1535, Metabolic Activation: NONE, Method: STANDARD PLATE); “inactive; negative” (Strain/Indicator: TA1535, Metabolic Activation: RAT, LIVER, S-9, AROCLOR 1254, Method: STANDARD PLATE). Besides, the mutagenic call was “inactive; negative” (Strain/Indicator: TA1537, Metabolic Activation: NONE, Method: STANDARD PLATE); “inactive; negative” (Strain/Indicator: TA1537, Metabolic Activation: RAT, LIVER, S-9, AROCLOR 1254, Method: STANDARD PLATE); “inactive; negative” (Strain/Indicator: TA1538, Metabolic Activation: NONE, Method: STANDARD PLATE); “inactive; negative” (Strain/Indicator: TA1538, Metabolic Activation: RAT, LIVER, S-9, AROCLOR 1254, Method: STANDARD PLATE).
